Measured values published in patent publication US20180042941A1, “CABAZITAXEL AND ITS USE FOR TREATING METASTATIC PROSTATE CANCERS” (AVENTIS PHARMA S.A., priority 2013, published 2018).

Legend:
[1] = tested on: patient with metastatic prostate cancer; test: case reports of patients treated with cabazitaxel in combination with prednisone or prednisolone (adverse events); settings: for WBC level: units not provided
Description: This example relates to the treatment of a patient with metastatic prostate cancer, according the following dosage: cabazitaxel (25 mg/m^2)+prednisone 10 mg daily+budesonide (9 mg daily).
This example relates to a patient (with prostate carcinoma) who initiated treatment with study drug cabazitaxel (20 mg/m^2) and prednisone (10 mg) (cycle 1).
This example relates to the treatment of a patient with a metastatic carcinoma of the prostate, according the following dosage: cabazitaxel 20 mg/m^2 intravenously (day 1) every 3 weeks and prednisone 10 mg PO daily, from day 1 continuously.
The treatment was as follows: cabazitaxel 20 mg/m^2 on day 1 every 3 weeks in combination with prednisone/prednisolone.
The following treatment was followed: cabazitaxel 25 mg/m^2 on day 1 every 3 weeks in combination with prednisone/prednisolone.
The dosage regimen was as follows: cabazitaxel 25 mg/m^2 intravenous infusion over 1 hour on day 1 of each 3 week cycle as well as oral prednisone/prednisolone 10 mg daily.
The following treatment was applied: cabazitaxel 20 mg/m^2 intravenously every 3 weeks, in combination with oral prednisone or prednisolone 10 mg daily.
This example relates to a patient with metastatic prostate cancer. The following treatment was followed: cabazitaxel 25 mg/m^2 intravenously (day 1) every 3 weeks and prednisone 10 mg PO daily, from day 1 continuously.
This patient was treated with cabazitaxel 20 mg/m^2 on day 1 every 3 weeks in combination with prednisone/prednisolone.
The following therapy dosage was used: cabazitaxel 25 mg/m^2 intravenously (day 1) every 3 weeks, plus prednisone 10 mg orally daily.
The therapy was as follows: the patient received cabazitaxel 25 mg/m^2 intravenous infusion over 1 hour on day 1 of each 3 week cycle as well as oral prednisone/prednisolone 10 mg daily.
The following dosage regimen was used: cabazitaxel 25 mg/m^2 on day 1 every 3 weeks in combination with prednisone/prednisolone.
This example relates to a patient with metastatic castration resistant prostate cancer not pretreated with chemotherapy. The following therapy was applied: cabazitaxel 25 mg/m^2 intravenously (day 1) every 3 weeks. Prednisone 10 mg PO daily, from day 1 continuously.
This example relates to a patient with metastatic castration resistant prostate cancer not pretreated with chemotherapy, having the following therapy: cabazitaxel 25 mg/m^2 intravenously (day 1) every 3 weeks and prednisone 10 mg PO daily, from day 1 continuously.
This example relates to a patient with metastatic castration resistant prostate cancer not pre-treated with chemotherapy. The following therapy was applied: cabazitaxel 20 mg/m^2 intravenously (day 1) every 3 weeks, prednisone 10 mg PO daily, from day 1 continuously.
The following dosage regimen was applied: cabazitaxel 25 mg/m^2 intravenously every 3 weeks, in combination with oral prednisone or prednisolone 10 mg daily.
The therapy involved the administration of cabazitaxel on day 1 every 3 weeks in combination with prednisone.
The following therapy was applied: cabazitaxel 25 mg/m^2 on day 1 every 3 weeks in combination with prednisolone.
The following dosage regimen was applied: cabazitaxel 20 mg/m^2 intravenously (day 1) every 3 weeks and prednisone 10 mg PO daily, from day 1 continuously.
The following dosage regimen was applied: cabazitaxel 20 mg/m^2 on day 1 every 3 weeks in combination with prednisolone.
The following dosage regimen was applied: cabazitaxel 25 mg/m^2 on day 1 every 3 weeks in combination with prednisone.
The applied dosage regimen was as follows: cabazitaxel 25 mg/m^2 intravenous infusion over 1 hour on day 1 of each 3 week cycle as well as oral prednisone 10 mg daily.

[2] = tested on: tumor models poorly or not sensitive to chemotherapy, including taxanes; settings: cited from earlier work
tubulin = settings: resulting in inhibition of microtubule depolymerization and tumor cell proliferation; cited from earlier work
[3] = tested on: patients treated with cabazitaxel; settings: cited from earlier work
[4] = Ex 3, cabazitaxel 25 mg/m^2 + prednisone + budesonide
[5] = Ex 5, cabazitaxel 20 mg/m^2 + prednisone, cycle 4, day 5
[6] = Ex 5, cabazitaxel 20 mg/m^2 + prednisone, during hospitalization
[7] = Ex 7, cabazitaxel 25 mg/m^2 + prednisone
[8] = Ex 7, cabazitaxel 25 mg/m^2 + prednisone, day 9 of first cycle
[9] = Ex 12, cabazitaxel 25 mg/m^2 + prednisone
[10] = Ex 16, cabazitaxel 25 mg/m^2 + prednisolone
[11] = Ex 16, cabazitaxel 25 mg/m^2 + prednisolone, five days after hospitalization
[12] = Ex 20, cabazitaxel 25 mg/m^2 + prednisolone, after intensive care
[13] = Ex 20, cabazitaxel 25 mg/m^2 + prednisolone, on admission

CO[C@H]1C(=O)[C@]2(C)[C@@H](OC)C[C@H]3OC[C@@]3(OC(C)=O)[C@H]2[C@H](OC(=O)c2ccccc2)[C@]2(O)C[C@H](OC(=O)[C@H](O)[C@@H](NC(=O)OC(C)(C)C)c3ccccc3)C(C)=C1C2(C)C [cabazitaxel, 4α-acetoxy-2α-benzoyloxy-5β,20-epoxy-1β-hydroxy-7β,10β-dimethoxy-9-oxo-11-taxen-13α-yl (2R,3S)-3-tert-butoxycarbonyl-amino-2-hydroxy-3-phenylpropionate]
control fibrogastroscopy finding ([1]; Ex 1, cabazitaxel 20 mg/m^2 + prednisone, ten days after antisecretory and antiulcer therapy): atrophic gastritis
outcome of event ([1]; Ex 1, cabazitaxel 20 mg/m^2 + prednisone, ten days after onset of epigastric pain): fully recovered
adverse event complained of ([1]; Ex 1, patient, cabazitaxel 20 mg/m^2 every 3 weeks + prednisone 10 mg daily, 15th day of cycle 1): epigastric pain
fibrogastroduodenoscopy finding ([1]; Ex 1, patient, cabazitaxel 20 mg/m^2 every 3 weeks + prednisone 10 mg daily, two days after 15th day of cycle 1): acute ulcer in the small curvature
colonic spasm (grade) ([1]; Ex 2, cabazitaxel 20 mg/m^2 + prednisone, during 7th cycle): grade 2 to grade 1
outcome of colitis ([1]; Ex 2, cabazitaxel 20 mg/m^2 + prednisone, three days later): recovered
colitis (grade) ([1]; Ex 2, patient, cabazitaxel 20 mg/m^2 every 3 weeks + prednisone 10 mg daily, 75 days after first, 6 days after most recent dose (cycle 4)): 3
colitis (grade) [1, 4]: 2
outcome of events [1, 4]: no more episodes of SVT or diarrhea
white blood cell (WBC) ([1]; Ex 3, cabazitaxel 25 mg/m^2 + prednisone + budesonide, 45 days after first dose, normal 4-10): 6.9
haemoglobin ([1]; Ex 3, cabazitaxel 25 mg/m^2 + prednisone + budesonide, 45 days after first dose, normal 8.5-11): 7.3
creatinine ([1]; Ex 3, cabazitaxel 25 mg/m^2 + prednisone + budesonide, 45 days after first dose, normal 60-110): 94
supraventricular tachycardia with angina (grade) ([1]; Ex 3, cabazitaxel 25 mg/m^2 + prednisone + budesonide, 45 days after first, 3 days after most recent dose): 3
sigmoidoscopy finding ([1]; Ex 3, cabazitaxel 25 mg/m^2 + prednisone + budesonide, six days later): severe colitis
diarrhea ([1]; Ex 3, patient, cabazitaxel 25 mg/m^2 + prednisone 10 mg daily + budesonide 9 mg daily, 43 days after first, 1 day after most recent dose): slight diarrhea
neutropenia ([1]; Ex 4, cabazitaxel 20 mg/m^2 + prednisone, during enterocolitis): no neutropenia
outcome of event ([1]; Ex 4, cabazitaxel 20 mg/m^2 + prednisone, three days later): recovered
enterocolitis (grade) ([1]; Ex 4, patient, cabazitaxel 20 mg/m^2 + prednisone 10 mg, 145 days after first, 7 days after most recent dose (cycle 7)): 3
gastritis (grade) [1, 5]: 2
nausea (grade) [1, 5]: 2
WBC decrease (grade) [1, 6]: 3
WBC level [1, 6]: 2720
outcome of events ([1]; Ex 5, cabazitaxel 20 mg/m^2 + prednisone, leukopenia three days after corrective treatment, hypotension, nausea and gastritis one day later): recovered
WBC level ([1]; Ex 5, cabazitaxel 20 mg/m^2 + prednisone, on the day after): 1000
hypotension (grade) ([1]; Ex 5, patient, cabazitaxel 20 mg/m^2 every 3 weeks + prednisone 10 mg daily, cycle 4, day 5): 2
pneumonia (grade) ([1]; Ex 6, cabazitaxel 20 mg/m^2 + prednisone, day 7 of cycle 1): 4
outcome ([1]; Ex 6, cabazitaxel 20 mg/m^2 + prednisone, one day later, due to paralytic ileus and pneumonia): died
paralytic ileus (grade) ([1]; Ex 6, patient, cabazitaxel 20 mg/m^2 every 3 weeks + prednisone, day 4 of cycle 1): 4
time to recovery from colitis [1, 7]: 9 days
time to recovery from neutropenia [1, 7]: 5 days
diarrhea with blood in feces, number of episodes [1, 8]: more than 10 episodes
neutropenia (grade) [1, 8]: 4
colitis (grade) ([1]; Ex 7, cabazitaxel 25 mg/m^2 + prednisone, neutropenic colitis, day 9 of first cycle): 3
absolute neutrophil count ([1]; Ex 7, patient, cabazitaxel 25 mg/m^2 every 3 weeks + prednisone 10 mg, day 9 of first cycle): 0.01
clostridium difficile infection (grade) ([1]; Ex 8, cabazitaxel 25 mg/m^2 + prednisone/prednisolone): 3
neutropenia (grade) ([1]; Ex 8, cabazitaxel 25 mg/m^2 + prednisone/prednisolone, 5th day of cycle 1): 3
outcome ([1]; Ex 8, cabazitaxel 25 mg/m^2 + prednisone/prednisolone, six days later): recovered
neutropenia (grade) ([1]; Ex 8, cabazitaxel 25 mg/m^2 + prednisone/prednisolone, two days later): 4
diarrhea (grade) ([1]; Ex 8, patient, cabazitaxel 25 mg/m^2 every 3 weeks + prednisone/prednisolone 10 mg daily, 5th day of cycle 1): 2
outcome ([1]; Ex 9, cabazitaxel 20 mg/m^2 + prednisolone, 5 days after initial hospitalization): death
neutrophil count ([1]; Ex 9, cabazitaxel 20 mg/m^2 + prednisolone, day following admission): 0.4
neutropenic colitis (grade) ([1]; Ex 9, cabazitaxel 20 mg/m^2 + prednisolone, final diagnosis): 4
diagnosis at hospitalization ([1]; Ex 9, patient, cabazitaxel 20 mg/m^2 every 3 weeks + prednisolone 10 mg daily, four days after second administration): acute bowel obstruction
neutropenic colitis (grade) ([1]; Ex 10, cabazitaxel 25 mg/m^2 + prednisone): 4
neutrophil count ([1]; Ex 10, cabazitaxel 25 mg/m^2 + prednisone, one day later, normal 1.4-7.7): 1e+08 L⁻¹
fever (grade) ([1]; Ex 10, cabazitaxel 25 mg/m^2 + prednisone, readmission two days after discharge): 1
outcome of event ([1]; Ex 10, cabazitaxel 25 mg/m^2 + prednisone, three days after readmission): resolved
diarrhea (grade) ([1]; Ex 10, patient, cabazitaxel 25 mg/m^2 every 3 weeks + prednisone 10 mg daily, 7 days after first cycle): 2
diagnosis ([1]; Ex 11, cabazitaxel 20 mg/m^2 + prednisone/prednisolone, nine days after last dose): Neutropenic infection (colitis)
platelet count ([1]; Ex 11, cabazitaxel 20 mg/m^2 + prednisone/prednisolone, nine days after last dose, NR 150×10^3-450×10^3): 93 ×10^3 cells/mm^3
CRP ([1]; Ex 11, cabazitaxel 20 mg/m^2 + prednisone/prednisolone, nine days after last dose, NR <0.5): 0.39 mg/dL
neutrophils ([1]; Ex 11, cabazitaxel 20 mg/m^2 + prednisone/prednisolone, nine days after last dose, normal 1.7×10^3-8.0×10^3): 1.12 ×10^3 cells/mm^3
outcome ([1]; Ex 11, cabazitaxel 20 mg/m^2 + prednisone/prednisolone, two days after admission): recovered
WBC ([1]; Ex 11, patient, cabazitaxel 20 mg/m^2 every 3 weeks + prednisone/prednisolone, nine days after last dose, normal 3.5×10^3-10.5×10^3): 2.41 ×10^3 cells/mm^3
enterocolitis (grade) [1, 9]: 4
febrile neutropenia (grade) [1, 9]: 4
renal failure (grade) [1, 9]: 4
septic shock (grade) [1, 9]: 4
outcome ([1]; Ex 12, cabazitaxel 25 mg/m^2 + prednisone, 2 days after admission, septic shock secondary to neutropenic enterocolitis): expired
fever ([1]; Ex 12, cabazitaxel 25 mg/m^2 + prednisone, 13 days after first dose): 38.5 °C
lower abdominal pain (grade) ([1]; Ex 12, patient, cabazitaxel 25 mg/m^2 every 3 weeks + prednisone 10 mg daily, 13 days after first dose): 3
outcome ([1]; Ex 13, cabazitaxel 25 mg/m^2 + prednisone/prednisolone, cause of death reported as progression of disease): died
diagnosis at hospitalization ([1]; Ex 13, patient, cabazitaxel 25 mg/m^2 every 3 weeks + prednisone/prednisolone 10 mg daily, ten days after first cycle): neutropenic enterocolitis and sepsis
outcome ([1]; Ex 14, cabazitaxel 25 mg/m^2 + prednisone, nine days after hospitalization): recovered
adverse event ([1]; Ex 14, patient, cabazitaxel 25 mg/m^2 every 3 weeks + prednisone, 232 days after first, 14 days after most recent dose (cycle 9)): neutropenic enteritis
outcome ([1]; Ex 15, cabazitaxel 25 mg/m^2 + prednisone, 4 days later): recovered
video coloscopy finding ([1]; Ex 15, cabazitaxel 25 mg/m^2 + prednisone, bacteriological tests later negative): probable infectious colitis
rectal bleeding (grade) ([1]; Ex 15, cabazitaxel 25 mg/m^2 + prednisone, cycle 6, 111 days after first, 6 days after last administration): 1
diarrhea (grade) ([1]; Ex 15, patient, cabazitaxel 25 mg/m^2 every 3 weeks + prednisone 10 mg daily, 108 days after first administration): 1
SAH (subarachnoid hemorrhage) (grade) [1, 10]: 2
urinary tract infection (grade) [1, 10]: 3
gastritis, final diagnosis (grade) ([1]; Ex 16, cabazitaxel 25 mg/m^2 + prednisolone, day 17 of cycle 1): 3
DIC (grade) [1, 11]: 4
INR [1, 11]: 1.6
outcome of gastritis ([1]; Ex 16, cabazitaxel 25 mg/m^2 + prednisolone, three days later): recovered
ulcus ventriculi, initial suspicion (grade) ([1]; Ex 16, patient, cabazitaxel 25 mg/m^2 every 3 weeks + prednisolone 10 mg, day 17 of cycle 1): 3
outcome ([1]; Ex 17, cabazitaxel 20 mg/m^2 + prednisone, seven days after hospitalization): recovered
adverse event (confirmed by emergency surgery) ([1]; Ex 17, patient, cabazitaxel 20 mg/m^2 every 3 weeks + prednisone 10 mg daily, 42 days after first, 21 days after most recent dose, life-threatening): perforation of ulcer
outcome of duodenal ulcers ([1]; Ex 18, cabazitaxel 25 mg/m^2 + prednisone or prednisolone): recovered
acute cystitis (grade) ([1]; Ex 18, cabazitaxel 25 mg/m^2 + prednisone or prednisolone, day 26 of cycle 1): 1
duodenal ulcers (grade) ([1]; Ex 18, patient, cabazitaxel 25 mg/m^2 every 3 weeks + prednisone or prednisolone 10 mg daily, four days after day 16 of cycle 1): 1
haematocrit ([1]; Ex 19, cabazitaxel + prednisone, 128 days after first dose, reference 42-52): 16.33%
digestive haemorrhage (grade) ([1]; Ex 19, cabazitaxel + prednisone, 128 days after first, 20 days after last dose, life threatening): 4
outcome ([1]; Ex 19, cabazitaxel + prednisone, discharged 9 days after hospitalization): recovered
haemoglobin ([1]; Ex 19, patient, cabazitaxel every 3 weeks + prednisone, 128 days after first, 20 days after last dose, reference 13.0-16.0): 51.2 g/L
haematocrit [1, 12]: 19.5%
haemoglobin [1, 12]: 72 g/L
platelets [1, 12]: 142 ×10^9
outcome ([1]; Ex 20, cabazitaxel 25 mg/m^2 + prednisolone, fifteen days after hospitalization): recovered
haematocrit [1, 13]: 19%
haemoglobin [1, 13]: 59 g/L
platelet ([1]; Ex 20, cabazitaxel 25 mg/m^2 + prednisolone, thirteen days after hospitalization, units not specified, 180-320 thousand in 1 mcl): 122
intestinal haemorrhage (grade) ([1]; Ex 20, patient, cabazitaxel 25 mg/m^2 every 3 weeks + prednisolone, 17 days after first dose, life threatening): 4
adverse event during hospital stay ([1]; Ex 21, cabazitaxel 20 mg/m^2 + prednisone): febrile neutropenia
outcome ([1]; Ex 21, cabazitaxel 20 mg/m^2 + prednisone, one day after discharge): recovered
small bowel obstruction (grade) ([1]; Ex 21, patient, cabazitaxel 20 mg/m^2 every 3 weeks + prednisone 10 mg daily, cycle 2, most likely secondary to adhesions): 4
outcome ([1]; Ex 22, cabazitaxel 20 mg/m^2 + prednisolone, three days later, after laproscopy): recovered
small intestinal obstruction (grade) ([1]; Ex 22, patient, cabazitaxel 20 mg/m^2 every 3 weeks + prednisolone, cycle 9, 181 days after first, 13 days after most recent dose): 3
general weakness (grade) ([1]; Ex 23, cabazitaxel 25 mg/m^2 + prednisone): 3
red blood loss per anum (grade) ([1]; Ex 23, cabazitaxel 25 mg/m^2 + prednisone, 85 days after first, 1 day after most recent dose): 1
outcome ([1]; Ex 23, cabazitaxel 25 mg/m^2 + prednisone, 117 days after first dose, due to disease progression): died
pathologic fracture lumbar spine 1 (grade) ([1]; Ex 23, cabazitaxel 25 mg/m^2 + prednisone, five days after day 95): 3
outcome of red blood loss per anum and hematuria ([1]; Ex 23, cabazitaxel 25 mg/m^2 + prednisone, two days after hospitalization): recovered
hematuria (grade) ([1]; Ex 23, patient, cabazitaxel 25 mg/m^2 every 3 weeks + prednisone, 85 days after first, 1 day after most recent dose): 3
outcome ([1]; Ex 24, cabazitaxel 25 mg/m^2 + prednisone, about a month after hospitalization, unknown cause, colitis ongoing): died
time to resolution of ileus ([1]; Ex 25, cabazitaxel 20 mg/m^2 + prednisone): 13 days
mechanical ileus due to unclear cause (grade) ([1]; Ex 25, cabazitaxel 20 mg/m^2 + prednisone, 215 days after first, 6 days after most recent dose): 2
diagnosis ([1]; Ex 25, patient, cabazitaxel 20 mg/m^2 every 3 weeks + prednisone 10 mg daily, 214 days after first dose): ileus
activity in tumor models [2]: active
action on tubulin (tubulin): binds to and stabilizes tubulin
gastrointestinal adverse reactions reported [3]: Gastrointestinal (GI) hemorrhage and perforation, ileus, colitis, including fatal outcome
